Reference: paper PMC9376960, “Ruthenium(II)–Tris-pyrazolylmethane Complexes Inhibit Cancer Cell Growth by Disrupting Mitochondrial Calcium Homeostasis” (Journal of Medicinal Chemistry, 2022)

Columns and labels:
[1] = set-up: method as in doi:10.1021/acs.organomet.9b00813; conditions: UV-Vis measurements; cited from earlier work
[2] = Solubility in water (D2O) by 1H NMR; format: physicochemical; conditions: D2O, 21°C; sum of chloro and aquo complex after 2 h; 1H NMR, Me2SO2 standard
Method: A suspension of the selected ruthenium complex (3–5 mg) in a D2O solution (0.7 mL) containing Me2SO2 as the internal standard[115] (3.36 × 10^–3 M) was vigorously stirred at 21 °C for 2 h. The resulting saturated solution was filtered over celite, transferred into an NMR tube, and analyzed by ^1H NMR and ^31P NMR spectroscopy (delay time = 3 s; number of scans = 20). The concentration (solubility) was calculated by the relative integral (starting complex + aquo complex, C^βH signal in the ^1H spectrum) with respect to Me2SO2 (δ/ppm = 3.14). NMR data are given in the Supporting Information (Figures S36–S47).

[3] = Octanol/water partition coefficient, shake-flask, UV-vis; format: physicochemical
Method: Partition coefficients (Pow); IUPAC: […] A stock solution of the selected ruthenium compound (ca. 2 mg) was prepared by first adding MeOH (50 μL, to help solubilization), followed by octanol-saturated water (2.5 mL). The solution was diluted with octanol-saturated water (ca. 1:3 v/v ratio, cRu ≈ 10^-4 M, so that 1.5 ≤ A ≤ 2.0 at λmax), and its UV-vis spectrum was recorded (Aaq^0). An aliquot of the solution (Vaq = 1.2 mL) was transferred into a test tube, and water-saturated octanol (Vorg = Vaq = 1.2 mL) was added. […] The UV-vis spectrum of the aqueous phase was recorded (Aaq^f), and the partition coefficient was calculated as Pow = ([…], where […] are the absorbances in the aqueous phase before and after partition with the organic phase, respectively.[118] For 1, an inverse procedure was followed, starting from a solution of the compound in water-saturated octanol. The partition coefficient was calculated as Pow = Aorg^f/(Aorg^0 - Aorg^f), where Aorg^0 and Aorg^f are the absorbances in the organic phase before and after partition with the aqueous phase, respectively. The wavelength of the maximum absorption of each compound (280-380 nm range) was used for UV-vis quantitation. The procedure was repeated three times for each sample (from the same stock solution); the results are given as mean ± standard deviation (Table 2).

[4] = Stability and chloride/water exchange in D2O (NMR); format: physicochemical; conditions: for Aquo species % in D2O after 48h: 48 h at 37 °C; for residual complex % in D2O: after 48 h at 37 °C, sum of chloro and aquo complexes; for Aquo species % in D2O at t0: t0 = after 2 h stirring in D2O
Method: The same samples prepared at point (a) were used in this experiment, apart from complex 1 that was dissolved in DMSO-d6/D2O 4:1 v/v solution (0.7 mL; [Ru] = approx. […]) containing Me2SO2 as the standard.[115] After ^1H and ^31P{^1H} NMR analyses described above at point (a) (time = t0), samples were heated at 37 °C for 48 h. After cooling to room temperature, ^1H and ^31P NMR spectra were recorded. The percentage of starting complex + related aquo complex was calculated by the relative integral (C^βH signal in the ^1H spectrum) with respect to Me2SO2 (c = 3.3 × 10^–3 mol·L^–1; δ/ppm = 3.14 in D2O; δ/ppm = 2.95 in DMSO-d6/D2O 4:1 v/v), see Table 2 and S1.

[5] = Stability and speciation in deuterated cell culture medium (DMEM-d/DMSO-d6, NMR); format: physicochemical; conditions: for Aquo species % in DMEM-d/DMSO-d6 after 24h: 37 °C; for residual complex % in DMEM-d/DMSO-d6: after 24 h at 37 °C, sum of chloro and aquo complexes
Method: Powdered DMEM cell culture medium (1000 mg/L glucose and L-glutamine, without sodium bicarbonate and phenol red; D2902; Sigma-Aldrich) was dissolved in D2O (10 mg/mL), according to the manufacturer’s instructions. The solution of deuterated cell culture medium (“DMEM-d”) was treated with Me2SO2 (6.6 × 10^–3 M) and NaH2PO4/Na2HPO4 (0.10 M, pD = 7.5)[120]−[122] and then stored at 4 °C under N2. The selected ruthenium compound (2–3 mg) was dissolved in DMSO-d6 (0.14 mL; 0.18 mL for 4) and then diluted with DMEM-d up to 0.75 mL total volume (cRu ca. 4 × 10^–3 M). The mixture was stirred for 30 min, then filtered over celite, and transferred into an NMR tube. The resulting yellow solution was analyzed by ^1H and ^31P NMR (delay time = 3 s; number of scans = 20) and then heated at 37 °C for 24 h. After cooling to room temperature, NMR analyses were repeated. Compound 1 was instead dissolved in a DMSO-d6/DMEM-d 4:1 v/v solution (0.7 mL; [Ru] = approx. 3 × 10^–3 M) containing Me2SO2 as the internal standard.[115] The percentage of the starting complex + related aquo complex was calculated by the relative integral with respect to Me2SO2 (δ/ppm = 3.16 in DMSO-d6/DMEM-d 1:4 and 1:3 v/v; δ/ppm = 2.95 in DMSO-d6/DMEM-d 4:1 v/v).

518A2 = assay: MTT antiproliferative assay; format: cell-based, human; conditions: 72 h, mean ± SD
Method: (§1) All of the cell lines were cultivated in DMEM medium (high glucose 4.5 g L^–1, PAA, Pasching, Austria) supplemented with gentamycin (50 μg mL^–1, Serva, Heidelberg, Germany) and 10% heat-inactivated fetal bovine serum (PAA). The medium for MRC5pd30 cells was further supplemented by 1% nonessential amino acids (Sigma-Aldrich, Prague, Czech Republic). All cells were cultured as adherent monolayers in a humidified incubator at 37 °C in a 5% CO2 atmosphere and subcultured twice a week with an appropriate plating density.
(§2) In vitro antiproliferative activity of Ru complexes was determined by the MTT or, alternatively, SRB assay as already described,[84] after 72 h of incubation of cells with various concentrations of the Ru complex. The reported IC50 values are an average of three independent experiments, each consisting of three replicates per concentration.

HCT116 [6] = assay: MTT antiproliferative assay; format: cell-based, human; conditions: 72 h, mean ± SD
Method: as §1, §2

HeLa = assay: MTT antiproliferative assay; format: cell-based, human; conditions: 72 h, mean ± SD
Method: as §1, §2

MCF-7 = assay: MTT antiproliferative assay; format: cell-based, human; conditions: 72 h, mean ± SD
Method: as §1, §2

RD = assay: MTT antiproliferative assay; format: cell-based, human; conditions: 72 h, mean ± SD
Method: as §1, with “density. In vitro antiproliferative activity of Ru complexes was determined by the MTT or, alternatively, SRB assay as already described,[84] after 72 h of incubation of cells with various concentrations of the Ru complex. The reported IC50 values are an average of three independent experiments, each consisting of three replicates per concentration.” for “density.”

MRC5pd30 = assay: MTT assay on noncancerous cells; format: cell-based, human; conditions: 72 h, mean ± SD
Method: as §1, §2

[7] = system: cancer cell lines (MCF-7, HeLa, 518A2, HCT116, RD) vs noncancerous MRC-5pd30; assay: MTT panel: average IC50 of cancer cell lines and selectivity index; format: cell-based, human; conditions: for SI (selectivity index): IC50 for noncancerous MRC-5pd30 vs the average IC50 value of cancer cell lines; for IC50: average of IC50 values related to cancer cell lines
Method: as §2

HCT116 [8] = assay: SRB antiproliferative assay; format: cell-based, human; conditions: SRB test, 72 h; mean ± SD
Method: as §2

HCT116 cells = assay: Cellular uptake of Ru (ICP-MS); format: cell-based, human; conditions: HCT116, 15 μM, 24 h; mean ± SEM
Method: In these experiments, 1 × 10^6 HCT116 cells were seeded on 100 mm Petri dishes. After overnight preincubation in a drug-free medium, the cells were treated with the Ru complexes (15 μM) for 24 h. Afterward, the cells were extensively washed with PBS (37 °C), detached using 0.25% trypsin, washed twice with ice-cold PBS, and counted by an automatic cell counter. The cell pellets were digested using a microwave acid (HCl) digestion system (CEM Mars). The quantity of Ru taken up by the cells was determined by inductively coupled plasma mass spectrometry (ICP-MS). All experiments were carried out in triplicate.

Substance	solubility [2]	log Pow [3]	Aquo species % in D2O after 48h [4] [%]	residual complex % in D2O [4] [%]	Aquo species % in D2O at t0 [4] [%]	IC50 (518A2) [µM]	IC50 (HCT116 [6]) [µM]	IC50 (HeLa) [µM]	IC50 (MCF-7) [µM]	IC50 (RD) [µM]	IC50 (MRC5pd30) [µM]	SI (selectivity index) [7]	IC50 [7] [µM]	IC50 (HCT116 [8]) [µM]	Accumulation of ruthenium, ng Ru/10^6 cells (HCT116 cells) [ng Ru/10^6 cells]	Aquo species % in DMEM-d/DMSO-d6 at t0 ([5]; DMSO-d6-DMEM-d 1:4 v/v) [%]	Aquo species % in DMEM-d/DMSO-d6 after 24h ([5]; DMSO-d6-DMEM-d 1:4 v/v) [%]	residual complex % in DMEM-d/DMSO-d6 ([5]; DMSO-d6/DMEM-d 1:4 v/v) [%]	other results
[Fe2Cp2(CO)(μ-CO){μ-η^1:η^3-C(3-C6H4OH)CHCNMe2}]CF3SO3 [[FeFe]^+[CF3SO3]^–]																			LogPow [1]: −0.34
[RuCl(κ^3-tpm)(PPh3){NCHNHC(CH)4C}]Cl [compound 4]	2.4 10^–3 mol·L^–1	0.58 ± 0.06	70	100	67	35 ± 4	25 ± 2	36 ± 1	37 ± 7	25 ± 3	56.6 ± 0.7	1.8	31.6 ± 3.4	21 ± 3	54.9 ± 1.3				Aquo species % in DMEM-d/DMSO-d6 at t0 ([5]; DMSO-d6-DMEM-d 1:3 v/v): 0%; Aquo species % in DMEM-d/DMSO-d6 after 24h ([5]; DMSO-d6-DMEM-d 1:3 v/v): 59%; residual complex % in DMEM-d/DMSO-d6 ([5]; DMSO-d6/DMEM-d 1:3 v/v): 93%
[RuCl(κ^3-tpm)(PPh3){NNH(CH)3}]Cl [compound 5]	3.4 10^–3 mol·L^–1	–0.05 ± 0.05	88	100	25	31 ± 3	30 ± 2	54 ± 6	32 ± 5	23 ± 2	63 ± 4	1.9	34 ± 3.6	20 ± 3	58.4 ± 3.0	0	50	98	
[RuCl(κ^3-tpm)(PPh3){N(CH)3C(OH)CH}]Cl [compound 6]	1.9 10^–3 mol·L^–1		99	100	15	38 ± 8	31 ± 2	54 ± 14	46 ± 7	38 ± 6	82 ± 4	2.0	41.4 ± 7.4	20 ± 2	27.2 ± 1.1	9	70	100	
[RuCl(κ^3-tpm)(PPh3)(NCMe)]Cl [compound 2]	4.5 10^–3 mol·L^–1	–0.33 ± 0.07	92	89	80	26 ± 4	25 ± 2	53 ± 4	32 ± 4	26 ± 5	76 ± 1	2.4	32.4 ± 3.8	16 ± 1	29.6 ± 2.9	0	59	51	
